In US20030104393A1, “Blood assessment of injury” (priority 2000, published 2003):

Assays:
brain = assay: Genes induced in the brain following kainic acid-induced seizures (microarray); type: in vivo, rat; set-up: key: NC = No Change; settings: brain
Method: (§1) Status epilepticus is produced by intraperitoneally injecting a glutamate analogue/excitotoxin, kainic acid (10 mg/kg i.p.). Animals with kainate-induced seizures are observed following drug administration to ensure that they continue to have complex seizures over a 30 minute period.
All animals are allowed to survive for 24 hours following each treatment. At that time they are deeply anesthetized with ketamine (100 mg/kg) and xylazine (20 mg/kg) given intraperitoneally. Once anesthetized, the chest is opened and a direct cardiac puncture performed with a syringe and 10 cc of blood is aspirated. Immediately following removal of the blood, the animal is decapitated while deeply anesthetized and the brain removed.
One day after hypoxia, status epilepticus, hypoglycemia, ischemic stroke, and hemorrhagic stroke are produced in adult rats, RNA or protein is isolated from the blood cells and from the brains of the animals described in Example 1. The pattern of genes or proteins expressed in the blood cells following each of these types of injury—hypoxia, status epilepticus, hypoglycemia, ischemic stroke, and hemorrhagic stroke is captured on a commercially available microarray (Affymetrix chip). The pattern of gene or protein expression is defined using an expression method, which then forms a genomic or proteomic organ injury database, which is used in assessing injury.
Note that the genes induced in the blood are different from the genes induced in the brain. Therefore, different organs express different genes. In addition, the genes induced by hypoxia in the blood are different from the genes induced by hypoxia in the brain. That is, the same stimulus induces different genes in different organs. Lastly, even though similar genes are induced in the brain by ischemia (stroke) and kainic acid-induced seizures, there are many differences in the gene expression between the two. Therefore, the pattern of gene expression in the brains of ischemic animals is distinctive from the pattern of expression of the kainate animals, and this pattern can be used to diagnose the different conditions of stroke and status epilepticus, even though many of the same genes are induced in the two conditions.
In further support, the following Tables 5 and 6 list those genes induced in the brain following stroke, kainic induced seizures, and hypoxia as compared with untouched controls and sham-operated controls.

neurons = assay: Status epilepticus produced by kainic acid: neuronal injury; type: in vivo, rat; settings: kainic acid 10 mg/kg i.p., 24 hours later
Method: as §1

Q: What does the source list for `C=C(C)[C@H]1CN[C@H](C(=O)O)[C@H]1CC(=O)O` [kainate, kainic acid]?
A: Kainic Acid Seizure (fold change) (brain; rc_aa799323— EST): NC; Kainic Acid Seizure (fold change) (brain; rc_aa799448 EST): NC; Kainic Acid Seizure (fold change) (brain; rc_aa799686 EST): 6.3 fold change; Kainic Acid Seizure (fold change) (brain; rc_aa799773 EST): 4.7 fold change; Kainic Acid Seizure (fold change) (brain; rc_aa800701 EST): NC; Kainic Acid Seizure (fold change) (brain; rc_aa800962 EST): NC; Kainic Acid Seizure (fold change) (brain; rc_aa866443 EST): NC; Kainic Acid Seizure (fold change) (brain; rc_aa875032 EST): NC; Kainic Acid Seizure (fold change) (brain; rc_aa875126 EST): 8.7 fold change; Kainic Acid Seizure (fold change) (brain; rc_aa891576 EST): NC; Kainic Acid Seizure (fold change) (brain; rc_aa892750 EST): NC; Kainic Acid Seizure (fold change) (brain; rc_aa892775 EST): 2.3 fold change; Kainic Acid Seizure (fold change) (brain; rc_aa892851 EST): NC; Kainic Acid Seizure (fold change) (brain; rc_aa900476 EST): NC; Kainic Acid Seizure (fold change) (brain; rc_aa926129_ EST): 4.9 fold change; Kainic Acid Seizure (fold change) (brain; rc_aa945737 EST): NC; Kainic Acid Seizure (fold change) (brain; rc_aa946044 EST): 2.8 fold change; Kainic Acid Seizure (fold change) (brain; rc_ai6i39302 EST): NC; Kainic Acid Seizure (fold change) (brain; rc_ai070295 EST): 1.9 fold change; Kainic Acid Seizure (fold change) (brain; rc_ai71962 EST): 1.9 fold change; Kainic Acid Seizure (fold change) (brain; rc_ai169756 EST): 1.7 fold change; Kainic Acid Seizure (fold change) (brain; rc_ai171966 EST): 3.8 fold change; Kainic Acid Seizure (fold change) (brain; rc_ai176456 EST): 2.3 fold change; Kainic Acid Seizure (fold change) (brain; rc_ai233219 EST): NC; Kainic Acid Seizure (fold change) (brain; rc_ai638945 EST): NC; Kainic Acid Seizure (fold change) (brain; rc_ai639042): NC; Kainic Acid Seizure (fold change) (brain; rc_ai639161 EST): 7.5 fold change; Kainic Acid Seizure (fold change) (brain; rc_ai639233 EST): NC; Kainic Acid Seizure (fold change) (brain; rc_ai639372_ EST): NC; Kainic Acid Seizure (fold change) (brain; rc_ai639402 EST): NC; Kainic Acid Seizure (fold change) (brain; rc_ai639457 EST): NC; Kainic Acid Seizure (fold change) (brain; s77494_s_at lysyl oxidase {3Nuntranslated region} [rats, aorta smooth muscle cell): NC; Kainic Acid Seizure (fold change) (brain; s82649_s_at Narp = neuronal activity-regulated pentraxin): 2.2 fold change; Kainic Acid Seizure (fold change) (brain; u04835_at CREMdeltaC—G gene): 2.1 fold change; Kainic Acid Seizure (fold change) (brain; u05014_at Rattus norvegicus Sprague/Dawley PHAS-a): 3.9 fold change; Kainic Acid Seizure (fold change) (brain; u23407_at Rattus norvegicus cellular retinoic acid-binding protein II (CRABP II) RNA): 9.2 fold change; Kainic Acid Seizure (fold change) (brain; u33500_g_at retinol dehydrogenase type II RNA): NC; Kainic Acid Seizure (fold change) (brain; u78102_at krox20 RNA): NC; Kainic Acid Seizure (fold change) (brain; x54686cds_at pJunB gene): NC; Kainic Acid Seizure (fold change) (brain; x60351cds_s alpha B-crystallin): 2.4 fold change; Kainic Acid Seizure (fold change) (brain; x62951RNA_s R. norvegicus RNA (pBUS19) with repetitive): NC; Kainic Acid Seizure (fold change) (brain; x63434_at R. norvegicus RNA for urokinase-type plasminogen activator): NC; Kainic Acid Seizure (fold change) (brain; x63594cds_g_ RL/IF-1 RNA): NC; Kainic Acid Seizure (fold change) (brain; x71127_at complement protein C1q beta): 2.7 fold change; Kainic Acid Seizure (fold change) (brain; x71127_s_at complement protein C1q beta chain): 3.6 fold change; Kainic Acid Seizure (fold change) (brain; x74565cds_g_ TBFII RNA for polypyrimidine tract binding): 5.4 fold change; Kainic Acid Seizure (fold change) (brain; x95986RNA#1 CBR gene): NC; Kainic Acid Seizure (fold change) (brain; x98377_at RNA for emerin): NC; Kainic Acid Seizure (fold change) (brain; x99121RNA#1 RT6 gene, exon 2, testis): NC; Kainic Acid Seizure (fold change) (brain; z22812_at interleukin-1 receptor type 2): NC; Neuronal injury (neurons): diffuse neuronal injury
